Source: patent US4284773A, “1,2,3,5-Tetrahydroimidazothienopyrimidin-2-ones” (Daiichi Seiyaku Co., Ltd., priority 1978, dated 1981)

Key:
[1] = system: collagen (Coll) induced platelet aggregation; test: in vitro inhibition of collagen (Coll) induced platelet aggregation, aggregometer method of Born, rat platelet rich plasma; type: cell-based; settings: rat citrated platelet rich plasma, 50% inhibition
Method: (§1) The aggregometer method of Born [G. V. Born, Nature, 194, 927 (1962)] was used to assess the in vitro activity of the various compounds as to inhibition of adenosine diphosphate (ADP) and collagen (Coll) induced platelet aggregation. Platelet rich plasma (PRP) was separated by centrifugation from citrated (0.313%) rat blood.
(§2) A methanolic solution of the test compound was added to the PRP, then aggregation was induced by adding to the mixture of ADP solution containing CaCl2 or a collagen suspension prepared according to the method described by Ashida et al [S. Ashida and Y. Abiko, Thromb. Diath. Haemorrh., 30, 528 (1975)], and the optical density of the resulting mixture was determined. […] A dose response curve was drawn from the results obtained above and the effective concentration giving a 50% inhibition (EC50) was calculated.

[2] = system: adenosine diphosphate (ADP) induced platelet aggregation; test: in vitro inhibition of adenosine diphosphate (ADP) induced platelet aggregation, aggregometer method of Born, rat platelet rich plasma; type: cell-based; settings: rat citrated platelet rich plasma, 50% inhibition
Method: as §1, §2

[3] = blood pressure of normal rat after oral administration; type: in vivo; settings: 50 mg/kg (p.o) in rat; 5-6 hours after oral administration
Method: The blood pressure of normal rat was measured at 5-6 hours after the oral administration at a dose of 50 mg/kg.

[4] = system: Platelet aggregation induced by collagen suspension; test: ex vivo inhibition of collagen-induced platelet aggregation after oral administration in rat; settings: 50 mg/kg (p.o) in rat, blood collected 2 hours after oral administration, vs vehicle control rats
Method: Blood samples were collected 2 hours after oral administration of the
compound to be tested or vehicle alone. Platelet rich plasmas were
obtained by centrifugation of the blood. Platelet aggregation was induced
by adding collagen suspension to the platelet rich plasma and was compare
with that observed with the platelet rich plasma from the control rats

Structure (SMILES) | EC50 [1] | EC50 [2] | Blood Pressure % Reduction [3] | Inhibition of Platelet Aggregation ex vivo % Inhibition [4]
O=C1CN2Cc3sccc3N=C2N1 [Compound 11] | 10 µM | 85 µM | – | –
O=C1CN2Cc3c(sc4c3CCCC4)N=C2N1 [Compound 8, 1,2,3,5,6,7,8,9-octahydroimidazo[1,2-a][1]benzothieno[2,3-d]pyrimidin-2-one] | 0.1 µM | 5 µM | 8 ± 2% | 57%
Cc1csc2c1CN1CC(=O)NC1=N2 [Compound 4] | 15 µM | 19 µM | – | –
Cc1cccc2c1CN1CC(=O)NC1=N2 [BL-3459, 6-methyl-1,2,3,5-tetrahydroimidazo[2,1-b]quinazolin-2-one, reference compound] | 0.8 µM | 5 µM | 35 + 3% | 57%
Cc1scc2c1CN1CC(=O)NC1=N2 [Compound 14] | 3.5 µM | 17 µM | – | 32%
Cc1c(Cl)sc2c1CN1CC(=O)NC1=N2 [Compound 6] | 1.9 µM | 4.2 µM | – | 24%
O=C1CN2Cc3c(sc4c3CCCCC4)N=C2N1 [Compound 9] | 15 µM | 20 µM | – | –
Cc1sc2c(c1C)CN1CC(=O)NC1=N2 [Compound 1, 6,7-dimethyl-1,2,3,5-tetrahydroimidazo[1,2-a]thieno[2,3-d]pyrimidin-2-one] | 1 µM | 5 µM | 5 ± 3% | 84%

Now from value to compound, other results behind:

EC50 [1] | EC50 [2] | Structure (SMILES) | Blood Pressure % Reduction [3] | Inhibition of Platelet Aggregation ex vivo % Inhibition [4]
0.19 µM | 2 µM | CCCCCc1sc2c(c1C)CN1CC(=O)NC1=N2 [Compound 17] | – | –
0.6 µM | 48 µM | CC1C(=O)NC2=Nc3sc4c(c3CN21)CCCC4 (stereo not shown) [Compound 18] | – | –
0.08 µM | 0.58 µM | CCCc1sc2c(c1C)CN1CC(=O)NC1=N2 [Compound 16] | – | 60%
2.2 µM | 3 µM | CCCc1c(CC)sc2c1CN1CC(=O)NC1=N2 [Compound 15] | – | 90%
